In PubChem BioAssay AID1963978 (Molecular Pharmacology Branch, DTP, NCI, 2024):

System: 616215-338-R-J1-PDC spheroids with HUVEC/MSC, viability
Test: Anticancer human tumor 616215-338-R-J1-PDC patient-derived colon adenocarcinoma cell line growth inhibition [PI3K]
Details: for IC50: curve of first compound; for viability, T/C: stronger effect = lower value
Method in brief: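 Complex 3D spheroids (cancer cells + endothelial HUVEC + mesenchymal stem cells); drug pairs of targeted agent x inavolisib/alpelisib/duvelisib/copanlisib; half-log series from ~Cmax, max 10 microM if Cmax unknown; endpoint viability.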

[1] = second compound 0.0316 µM, first compound 0.0316 µM
[2] = second compound 0.0316 µM, first compound 0.1 µM
[3] = second compound 0.0316 µM, first compound 0.316 µM
[4] = second compound 0.0316 µM, first compound 1 µM
[5] = second compound 0.0316 µM, first compound 3.16 µM
[6] = second compound 0.0316 µM, first compound 10 µM
[7] = second compound 0.1 µM, first compound 0.0316 µM
[8] = second compound 0.1 µM, first compound 0.1 µM
[9] = second compound 0.1 µM, first compound 0.316 µM
[10] = second compound 0.1 µM, first compound 1 µM
[11] = second compound 0.1 µM, first compound 3.16 µM
[12] = second compound 0.1 µM, first compound 10 µM
[13] = second compound 0.316 µM, first compound 0.0316 µM
[14] = second compound 0.316 µM, first compound 0.1 µM
[15] = second compound 0.316 µM, first compound 0.316 µM
[16] = second compound 0.316 µM, first compound 1 µM
[17] = second compound 0.316 µM, first compound 3.16 µM
[18] = second compound 0.316 µM, first compound 10 µM
[19] = second compound 1 µM, first compound 0.0316 µM
[20] = second compound 1 µM, first compound 0.1 µM
[21] = second compound 1 µM, first compound 0.316 µM
[22] = second compound 1 µM, first compound 1 µM
[23] = second compound 1 µM, first compound 3.16 µM
[24] = second compound 1 µM, first compound 10 µM
[25] = second compound 3.16 µM, first compound 0.0316 µM
[26] = second compound 3.16 µM, first compound 0.1 µM
[27] = second compound 3.16 µM, first compound 0.316 µM
[28] = second compound 3.16 µM, first compound 1 µM
[29] = second compound 3.16 µM, first compound 3.16 µM
[30] = second compound 3.16 µM, first compound 10 µM
[31] = second compound 10 µM, first compound 0.0316 µM
[32] = second compound 10 µM, first compound 0.1 µM
[33] = second compound 10 µM, first compound 0.316 µM
[34] = second compound 10 µM, first compound 1 µM
[35] = second compound 10 µM, first compound 3.16 µM
[36] = second compound 10 µM, first compound 10 µM
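Note: spheroids exposed to agents for seven days before the viability read.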

## Cn1cnc2c(F)c(Nc3ccc(Br)cc3Cl)c(C(=O)NOCCO)cc21 + CC(Nc1ccc2c(c1)OCCn1cc(N3C(=O)OCC3C(F)F)nc1-2)C(N)=O
Second compound 0.00316 µM
  IC50: 1.4 µM
Second compound 0.01 µM
  IC50: 1.16 µM
Second compound 0.0316 µM
  IC50: 0.764 µM
Second compound 0.1 µM
  IC50: 0.982 µM
Second compound 0.316 µM
  IC50: 0.495 µM
Second compound 1 µM
  IC50: 0.408 µM
Second compound 0.00316 µM, first compound 0.00949 µM
  viability, T/C: 96.5%
Second compound 0.00316 µM, first compound 0.03 µM
  viability, T/C: 98.9%
Second compound 0.00316 µM, first compound 0.0949 µM
  viability, T/C: 83.7%
Second compound 0.00316 µM, first compound 0.3 µM
  viability, T/C: 76%
Second compound 0.00316 µM, first compound 0.949 µM
  viability, T/C: 56.8%
Second compound 0.00316 µM, first compound 3 µM
  viability, T/C: 36.5%
Second compound 0.01 µM, first compound 0.00949 µM
  viability, T/C: 94.6%
Second compound 0.01 µM, first compound 0.03 µM
  viability, T/C: 91%
Second compound 0.01 µM, first compound 0.0949 µM
  viability, T/C: 87.8%
Second compound 0.01 µM, first compound 0.3 µM
  viability, T/C: 71.8%
Second compound 0.01 µM, first compound 0.949 µM
  viability, T/C: 54.7%
Second compound 0.01 µM, first compound 3 µM
  viability, T/C: 31.4%
Second compound 0.0316 µM, first compound 0.00949 µM
  viability, T/C: 96.1%
Second compound 0.0316 µM, first compound 0.03 µM
  viability, T/C: 110%
Second compound 0.0316 µM, first compound 0.0949 µM
  viability, T/C: 77.2%
Second compound 0.0316 µM, first compound 0.3 µM
  viability, T/C: 77.5%
Second compound 0.0316 µM, first compound 0.949 µM
  viability, T/C: 38.3%
Second compound 0.0316 µM, first compound 3 µM
  viability, T/C: 38.8%
Second compound 0.1 µM, first compound 0.00949 µM
  viability, T/C: 106%
Second compound 0.1 µM, first compound 0.03 µM
  viability, T/C: 86.9%
Second compound 0.1 µM, first compound 0.0949 µM
  viability, T/C: 87.2%
Second compound 0.1 µM, first compound 0.3 µM
  viability, T/C: 65.2%
Second compound 0.1 µM, first compound 0.949 µM
  viability, T/C: 48.9%
Second compound 0.1 µM, first compound 3 µM
  viability, T/C: 37%
Second compound 0.316 µM, first compound 0.00949 µM
  viability, T/C: 109%
Second compound 0.316 µM, first compound 0.03 µM
  viability, T/C: 94.8%
Second compound 0.316 µM, first compound 0.0949 µM
  viability, T/C: 79.4%
Second compound 0.316 µM, first compound 0.3 µM
  viability, T/C: 57.4%
Second compound 0.316 µM, first compound 0.949 µM
  viability, T/C: 39%
Second compound 0.316 µM, first compound 3 µM
  viability, T/C: 35.9%
Second compound 1 µM, first compound 0.00949 µM
  viability, T/C: 106%
Second compound 1 µM, first compound 0.03 µM
  viability, T/C: 85.1%
Second compound 1 µM, first compound 0.0949 µM
  viability, T/C: 79.7%
Second compound 1 µM, first compound 0.3 µM
  viability, T/C: 51.6%
Second compound 1 µM, first compound 0.949 µM
  viability, T/C: 37.5%
Second compound 1 µM, first compound 3 µM
  viability, T/C: 26.4%

## CC(C)NCC(C(=O)N1CCN(c2ncnc3c2C(C)CC3O)CC1)c1ccc(Cl)cc1 (stereo not drawn) + COc1c(OCCCN2CCOCC2)ccc2c3n(c(=NC(=O)c4cnc(N)nc4)nc12)CCN3
Second compound 0.00316 µM
  IC50: 4.67 µM
Second compound 0.01 µM
  IC50: 4 µM
Second compound 0.0316 µM
  IC50: 2.56 µM
Second compound 0.1 µM
  IC50: 1.64 µM
Second compound 0.316 µM
  IC50: < 0.0316 µM
Second compound 1 µM
  IC50: < 0.0316 µM
Second compound 0.00316 µM, first compound 0.0316 µM
  viability, T/C: 87.4%
Second compound 0.00316 µM, first compound 0.1 µM
  viability, T/C: 92.8%
Second compound 0.00316 µM, first compound 0.316 µM
  viability, T/C: 92.9%
Second compound 0.00316 µM, first compound 1 µM
  viability, T/C: 97%
Second compound 0.00316 µM, first compound 3.16 µM
  viability, T/C: 64.3%
Second compound 0.00316 µM, first compound 10 µM
  viability, T/C: 22.1%
Second compound 0.01 µM, first compound 0.0316 µM
  viability, T/C: 93.1%
Second compound 0.01 µM, first compound 0.1 µM
  viability, T/C: 99.6%
Second compound 0.01 µM, first compound 0.316 µM
  viability, T/C: 100%
Second compound 0.01 µM, first compound 1 µM
  viability, T/C: 103%
Second compound 0.01 µM, first compound 3.16 µM
  viability, T/C: 57.2%
Second compound 0.01 µM, first compound 10 µM
  viability, T/C: 21.4%
[1]
  viability, T/C: 96.8%
[2]
  viability, T/C: 102%
[3]
  viability, T/C: 93.6%
[4]
  viability, T/C: 94.4%
[5]
  viability, T/C: 40.1%
[6]
  viability, T/C: 23.7%
[7]
  viability, T/C: 98.8%
[8]
  viability, T/C: 84.4%
[9]
  viability, T/C: 80.3%
[10]
  viability, T/C: 55.7%
[11]
  viability, T/C: 39.6%
[12]
  viability, T/C: 18.5%
[13]
  viability, T/C: 38.3%
[14]
  viability, T/C: 37.1%
[15]
  viability, T/C: 33.3%
[16]
  viability, T/C: 30.3%
[17]
  viability, T/C: 28.2%
[18]
  viability, T/C: 17%
[19]
  viability, T/C: 24.8%
[20]
  viability, T/C: 21.8%
[21]
  viability, T/C: 22.1%
[22]
  viability, T/C: 20.9%
[23]
  viability, T/C: 20.7%
[24]
  viability, T/C: 14.1%

## C[C@@H](NC(=O)c1ncnc(N)c1Cl)c1ncc(C(=O)Nc2cc(C(F)(F)F)c(Cl)cn2)s1 + Cc1nc(NC(=O)N2CCCC2C(N)=O)sc1-c1ccnc(C(C)(C)C(F)(F)F)c1
Second compound 0.0316 µM
  IC50: > 10 µM
Second compound 0.1 µM
  IC50: > 10 µM
Second compound 0.316 µM
  IC50: > 10 µM
Second compound 1 µM
  IC50: > 10 µM
Second compound 3.16 µM
  IC50: > 10 µM
Second compound 10 µM
  IC50: 4.85 µM
[1]
  viability, T/C: 91.9%
[2]
  viability, T/C: 101%
[3]
  viability, T/C: 94.3%
[4]
  viability, T/C: 105%
[5]
  viability, T/C: 112%
[6]
  viability, T/C: 89.2%
[7]
  viability, T/C: 111%
[8]
  viability, T/C: 99.1%
[9]
  viability, T/C: 101%
[10]
  viability, T/C: 115%
[11]
  viability, T/C: 93.7%
[12]
  viability, T/C: 77.7%
[13]
  viability, T/C: 107%
[14]
  viability, T/C: 110%
[15]
  viability, T/C: 106%
[16]
  viability, T/C: 119%
[17]
  viability, T/C: 109%
[18]
  viability, T/C: 77.2%
[19]
  viability, T/C: 112%
[20]
  viability, T/C: 112%
[21]
  viability, T/C: 107%
[22]
  viability, T/C: 108%
[23]
  viability, T/C: 108%
[24]
  viability, T/C: 62.3%
[25]
  viability, T/C: 102%
[26]
  viability, T/C: 112%
[27]
  viability, T/C: 103%
[28]
  viability, T/C: 98.9%
[29]
  viability, T/C: 81.1%
[30]
  viability, T/C: 53.1%
[31]
  viability, T/C: 97.5%
[32]
  viability, T/C: 107%
[33]
  viability, T/C: 88.9%
[34]
  viability, T/C: 104%
[35]
  viability, T/C: 68.3%
[36]
  viability, T/C: 19.2%

## Cn1nccc1Nc1nccc(-c2ccn(C(CO)c3ccc(Cl)c(F)c3)c(=O)c2)n1 (stereo not drawn) + CC(Nc1ncnc2nc[nH]c12)c1cc2cccc(Cl)c2c(=O)n1-c1ccccc1
Second compound 0.0316 µM
  IC50: 5.16 µM
Second compound 0.1 µM
  IC50: 5.57 µM
Second compound 0.316 µM
  IC50: 2.94 µM
Second compound 1 µM
  IC50: 5.74 µM
Second compound 3.16 µM
  IC50: 2.62 µM
Second compound 10 µM
  IC50: 1.53 µM
[1]
  viability, T/C: 95.6%
[2]
  viability, T/C: 89.2%
[3]
  viability, T/C: 89.7%
[4]
  viability, T/C: 68.1%
[5]
  viability, T/C: 57%
[6]
  viability, T/C: 42.7%
[7]
  viability, T/C: 106%
[8]
  viability, T/C: 102%
[9]
  viability, T/C: 84.3%
[10]
  viability, T/C: 77.3%
[11]
  viability, T/C: 65.4%
[12]
  viability, T/C: 36.5%
[13]
  viability, T/C: 101%
[14]
  viability, T/C: 102%
[15]
  viability, T/C: 80.6%
[16]
  viability, T/C: 67.1%
[17]
  viability, T/C: 50.8%
[18]
  viability, T/C: 29.9%
[19]
  viability, T/C: 109%
[20]
  viability, T/C: 98.6%
[21]
  viability, T/C: 71.8%
[22]
  viability, T/C: 72.9%
[23]
  viability, T/C: 61.2%
[24]
  viability, T/C: 40.6%
[25]
  viability, T/C: 99.1%
[26]
  viability, T/C: 105%
[27]
  viability, T/C: 93.4%
[28]
  viability, T/C: 71.3%
[29]
  viability, T/C: 47.1%
[30]
  viability, T/C: 28%
[31]
  viability, T/C: 111%
[32]
  viability, T/C: 99%
[33]
  viability, T/C: 72.6%
[34]
  viability, T/C: 57.8%
[35]
  viability, T/C: 39.7%
[36]
  viability, T/C: 12.7%
